Results published in US20220380430A1, “Non-Transgenic Functional Rescue of Neuropeptides” (Worcester Polytechnic Institute, priority 2021, published 2022).
No end group written: not given here.

Experiments:
trh-1 mutant worms = test: Size comparison (body volume) after rescue-by-feeding; assay type: in vivo, C. elegans; conditions: trh-1 mutant animals fed peptide; N2 set as 100%
Description: All animals were maintained on bacterial lawns of OP50 E. coli, at 20° C., on NGM agar plates until the start of experiments. Mutant or control animals were transferred onto lawns of DH5α E. coli expressing either scramble peptide or the rescue peptide-of-interest on NGM plates containing […] AMP and 1 mM IPTG. Animals were reared on the peptide-expressing lawns for at least 48 hours at 20° C. before assaying for rescue of mutant phenotype at the appropriate developmental stage.
The body morphology different of trh-1 mutants was compared to wild-type worms by body volume measurements. Wild-type (N2) and trh-1 animals were synchronized by embryonic starvation following alkaline hypochlorite protocols. Ten gravid hermaphrodites from OP50 E. coli plates were picked into 30 μL drops of alkaline hypochlorite solution (20% sodium hypochlorite, 500 mM KOH). Two drops were placed on either side of an unseeded NGM plate, resulting in 20 animals per plate. Plates were then incubated for 24 hours at 20° C. before L1 larval animals washed with 1 mL M9 (22 mM KH2PO4, 42.25 mM Na2HPO4, 85.5 mM NaCl, 1 mM MgSO4) per unseeded NGM plate. Allow L1 worms to settle into pellet before removing M9 supernatant. Repeat washing step 2 more times. Plate worm pellet onto NGM with […] AMP and 1 mM IPTG plates containing 75 μL peptide lawns.
After at 48 hours at 20° C., animals were recorded using a Basler acA2500-14 uM camera using WormLab software (WormLab 4.1; MBF Bioscience, 2017) for 65 seconds. Worm length, width, and area were calculated within the WormLab software (FIG. 5C-FIG. 5H). As the WormLab worm width metric is an average of cross-sections throughout the length of each worm, this was used to calculate the volume of a worm as a cylinder, with the Volume=π*(0.5*width)^2*length (FIG. 2A-FIG. 2B, FIG. 5A-FIG. 5B).
Two to four plates were recorded per day for at least three days to generate data sets. Control plates of N2 and trh-1 animals raised on the scramble peptide were grown alongside every rescue feeding. Each “worm track” was considered an n=1. Tracks were excluded if (1) worm tracks less than 10 seconds, or (2) worms were further than two standard deviations from the mean metric. Following tests for normality, comparisons were made using either Mann-Whitney tests for direct comparisons between N2 and trh-1 animals reared on OP50, or Kruskal-Wallis non-parametric ANOVAs and Dunn's multiple comparisons tests for animals raised on peptide feeding strains. Comparisons were made for metrics: length (FIG. 5C-FIG. 5D), width (FIG. 5e-FIG. 5F), area (FIG. 5G-FIG. 5H), and volume (FIG. 2A-FIG. 2B, FIG. 5A-FIG. 5B).

flp-3 lof males = test: Single worm attraction assay (SWAA) to ascr #8 after FLP-3 peptide rescue-by-feeding; assay type: in vivo, C. elegans; conditions: flp-3 lof males raised on peptide; in words
Description: The outer forty wells of a 48-well suspension culture plate (Olympus Plastics, Cat #: 25-103) were seeded with 200 μL of standard NGM agar. To prepare the plates for the assay, they were acclimated to room temperature, at which point each well was seeded with 65 μL of OP50 E. coli. The assay plates were then transferred to a 37° C. incubator with the lid tilted for 4 h to allow the bacterial culture to dry on the agar. Once the bacterial culture dried, the lid was replaced the plate was stored at 20° C. until used in the assay. Fifty to sixty L4 worms were segregated by sex and stored at 20° C. for 5 h to overnight to be assayed as young adults. 0.8 μL of either vehicle control or ascaroside #8 was placed in the center of the well corresponding to that condition within the quadrant being tested, following a random block design (FIG. 11A). A single worm was placed in each of the 10 wells to be assayed, and the plate was transferred to a light source and camera and recorded for 15 m. This process was repeated for all four quadrants. Each strain and sex were assayed over five plates assayed on at least three different days. Raw dwell time values were calculated by subtracting the time a worm exited the cue (center of the well in spatial controls), from the time it entered, as in the SRA. This was determined per visit, and the average dwell time was calculated for each animal in the quadrant. Averages of the four-quadrant means were determined per plate, and a minimum of five plates were assayed per strain/condition. The mean raw dwell time across five plates was calculated and used for statistical analyses and graphical display. The average dwell time in the ascaroside was divided by the average dwell time within the vehicle control per plate to generate a fold-change. To transform the data, the log of this fold-change was taken, and the average log(fold-change) was used for statistical analyses and graphical display. […]

Substance: NSKLHRGGGRSRTSGSTGSMASHARGSPGLQ-NH2 [SCRAMBLE, scramble control peptide expressed in E. coli DH5α, negative control, reference compound]
- Relative Body Volume (trh-1 mutant worms): ~120%
- rescue of attraction to ascr #8 (dwell time, log(fold-change)) (flp-3 lof males): does not affect behavior
